Patent US9611249B2, “1H-indazole-3-carboxamide compounds as glycogen synthase kinase 3 beta inhibitors” (AZIENDE CHIMICHE RIUNITE ANGELINI FRANCESCO A.C.R.A.F. …, priority 2012, dated 2017)

Experiments:
[1] = target: EphA4 kinase (h) (Homo sapiens (Human), UniProt P54764); assay: Kinase selectivity panel: EphA4 kinase (h); format: biochemical; details: 10 μM in duplicate, read-out: % inhibition of control values
Protocol: (§1) (a) Compounds 1 and 2 were tested against a panel of 60 kinases in order to assess their selectivity. The assays were chosen taking into consideration the diversity of assay families.
(§2) Tested kinases were representative of following kinase sub-families: • protein-serine/threonine kinases; • protein-tyrosine kinases; • other kinases; and • atypical kinases.
(§3) Human recombinant kinases were incubated in the presence of specific peptide substrates plus ATP for different times (10, 15, 30, 60 or 90 minutes) at 22° C. Phosphorylated substrate was detected by LANCE or HTRF technology (CISBIO, MA, USA). The compounds were tested at 10 μM in duplicate.
(§4) The results are expressed as a percentage of inhibition of control specific activity obtained in the presence of the test compounds and are reported in the following Table 5.
(§5) (b) Compounds 3, 8, 29 and 31 were tested against the same panel of 60 kinases under the same conditions described above for compounds 1 and 2.
(§6) The results are expressed as a percent of inhibition of control specific activity obtained in the presence of the test compounds and are reported in the following Table 6.

[2] = target: FGFR1 kinase (h) (Homo sapiens (Human), UniProt P11362); assay: Kinase selectivity panel: FGFR1 kinase (h); format: biochemical; details: 10 μM in duplicate, read-out: % inhibition of control values
Protocol: as §1, §2, §3, §4, §5, §6

[3] = target: FGFR4 kinase (h) (Homo sapiens (Human), UniProt P22455); assay: Kinase selectivity panel: FGFR4 kinase (h); format: biochemical; details: 10 μM in duplicate, read-out: % inhibition of control values
Protocol: as §1, §2, §3, §4, §5, §6

[4] = target: IGF1R kinase (h) (Homo sapiens (Human), UniProt P08069); assay: Kinase selectivity panel: IGF1R kinase (h); format: biochemical; details: 10 μM in duplicate, read-out: % inhibition of control values
Protocol: as §1, §2, §3, §4, §5, §6

[5] = target: Ret kinase (h) (Homo sapiens (Human), UniProt P07949); assay: Kinase selectivity panel: Ret kinase (h); format: biochemical; details: 10 μM in duplicate, read-out: % inhibition of control values
Protocol: as §1, §2, §3, §4, §5, §6

[6] = target: JAK2 (h) (Homo sapiens (Human), UniProt O60674); assay: Kinase selectivity panel: JAK2 (h); format: biochemical; details: 10 μM in duplicate, read-out: % inhibition of control values
Protocol: as §1, §2, §3, §4, §5, §6

[7] = target: Fyn kinase (h) (Homo sapiens (Human), UniProt P06241); assay: Kinase selectivity panel: Fyn kinase (h); format: biochemical; details: 10 μM in duplicate, read-out: % inhibition of control values
Protocol: as §1, §2, §3, §4, §5, §6

[8] = target: Src kinase (h) (Homo sapiens (Human), UniProt P12931); assay: Kinase selectivity panel: Src kinase (h); format: biochemical; details: 10 μM in duplicate, read-out: % inhibition of control values
Protocol: as §1, §2, §3, §4, §5, §6

[9] = target: GSK3beta (h) (Homo sapiens (Human), UniProt P49841); assay: Kinase selectivity panel: GSK3beta (h); format: biochemical; details: GSK3beta (h); 10 μM in duplicate; read-out: % inhibition of control values
Protocol: as §1, §2, §3, §4, §6

[10] = target: DYRK1a (h) (Homo sapiens (Human), UniProt Q13627); assay: Kinase selectivity panel: DYRK1a (h); format: biochemical; details: 10 μM in duplicate, read-out: % inhibition of control values
Protocol: as §1, §2, §3, §4, §5, §6

[11] = target: PCTAIRE1 kinase (h) (Homo sapiens (Human), UniProt Q00536); assay: Kinase selectivity panel: PCTAIRE1 kinase (h); format: biochemical; details: 10 μM in duplicate, read-out: % inhibition of control values
Protocol: as §1, §2, §3, §4, §5, §6

[12] = target: CDC2/CDK1 (h) (cycB) (Homo sapiens (Human), UniProt P06493); assay: Kinase selectivity panel: CDC2/CDK1 (h) (cycB); format: biochemical; details: 10 μM in duplicate, read-out: % inhibition of control values
CDC2/CDK1 (h) (cycB), sequence (P06493 whole entry): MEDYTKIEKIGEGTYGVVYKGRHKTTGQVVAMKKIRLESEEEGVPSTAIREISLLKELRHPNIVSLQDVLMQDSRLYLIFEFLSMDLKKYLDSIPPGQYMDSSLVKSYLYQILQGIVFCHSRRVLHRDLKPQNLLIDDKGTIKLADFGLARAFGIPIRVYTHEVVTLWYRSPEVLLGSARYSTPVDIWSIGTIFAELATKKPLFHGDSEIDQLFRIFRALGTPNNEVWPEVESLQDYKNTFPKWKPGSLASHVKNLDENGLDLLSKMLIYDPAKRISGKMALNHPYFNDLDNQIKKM
CDC2/CDK1 (h) (cycB), sequence (P14635 whole entry partner): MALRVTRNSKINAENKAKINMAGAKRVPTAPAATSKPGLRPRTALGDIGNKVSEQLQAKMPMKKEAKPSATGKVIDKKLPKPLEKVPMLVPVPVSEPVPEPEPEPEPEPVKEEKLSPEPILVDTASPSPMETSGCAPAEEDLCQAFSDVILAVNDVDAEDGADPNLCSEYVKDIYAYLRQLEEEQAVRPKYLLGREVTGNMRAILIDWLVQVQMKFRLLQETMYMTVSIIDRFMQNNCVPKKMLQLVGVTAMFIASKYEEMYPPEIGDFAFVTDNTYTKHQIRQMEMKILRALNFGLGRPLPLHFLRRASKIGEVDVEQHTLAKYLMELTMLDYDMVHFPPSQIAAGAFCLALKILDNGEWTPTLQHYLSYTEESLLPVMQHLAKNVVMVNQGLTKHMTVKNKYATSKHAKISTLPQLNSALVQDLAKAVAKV
Protocol: as §1, §2, §3, §4, §5, §6

[13] = target: CDK2 (h) (cycA) (Homo sapiens (Human), UniProt P24941); assay: Kinase selectivity panel: CDK2 (h) (cycA); format: biochemical; details: 10 μM in duplicate, read-out: % inhibition of control values
Protocol: as §1, §2, §3, §4, §5, §6

[14] = target: CDK5/p35 (h) (Homo sapiens (Human), UniProt Q00535); assay: Kinase selectivity panel: CDK5/p35 (h); format: biochemical; details: 10 μM in duplicate, read-out: % inhibition of control values
Protocol: as §1, §2, §3, §4, §5, §6

[15] = target: p38alpha kinase (h) (Homo sapiens (Human), UniProt Q16539); assay: Kinase selectivity panel: p38alpha kinase (h); format: biochemical; details: 10 μM in duplicate, read-out: % inhibition of control values
p38alpha kinase (h), sequence (Q16539 whole entry): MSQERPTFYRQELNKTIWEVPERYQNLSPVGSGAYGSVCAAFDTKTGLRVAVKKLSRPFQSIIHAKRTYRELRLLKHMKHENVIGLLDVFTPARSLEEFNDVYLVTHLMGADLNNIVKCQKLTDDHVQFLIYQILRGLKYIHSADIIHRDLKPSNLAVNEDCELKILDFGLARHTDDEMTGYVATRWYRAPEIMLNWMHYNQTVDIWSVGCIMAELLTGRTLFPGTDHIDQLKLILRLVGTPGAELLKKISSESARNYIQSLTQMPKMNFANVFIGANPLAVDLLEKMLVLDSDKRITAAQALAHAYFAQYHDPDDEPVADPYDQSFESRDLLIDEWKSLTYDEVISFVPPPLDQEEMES
Protocol: as §1, §2, §3, §4, §5, §6

[16] = target: p38delta kinase (h) (Homo sapiens (Human), UniProt O15264); assay: Kinase selectivity panel: p38delta kinase (h); format: biochemical; details: 10 μM in duplicate, read-out: % inhibition of control values
Protocol: as §1, §2, §3, §4, §5, §6

[17] = target: CHK1 (h) (Homo sapiens (Human), UniProt O14757); assay: Kinase selectivity panel: CHK1 (h); format: biochemical; details: 10 μM in duplicate, read-out: % inhibition of control values
Protocol: as §1, §2, §3, §4, §5, §6

[18] = system: AMPKalpha; assay: Kinase selectivity panel: AMPKalpha; format: biochemical, human; details: 10 μM in duplicate
Protocol: as §1, §2, §3, §4, §5, §6

[19] = target: CaMK4 (h) (Homo sapiens (Human), UniProt Q16566); assay: Kinase selectivity panel: CaMK4 (h); format: biochemical; details: 10 μM in duplicate, read-out: % inhibition of control values
Protocol: as §1, §2, §3, §4, §5, §6

[20] = target: DAPK1 (h) (Homo sapiens (Human), UniProt P53355); assay: Kinase selectivity panel: DAPK1 (h); format: biochemical; details: 10 μM in duplicate, read-out: % inhibition of control values
DAPK1 (h), sequence (P53355 whole entry): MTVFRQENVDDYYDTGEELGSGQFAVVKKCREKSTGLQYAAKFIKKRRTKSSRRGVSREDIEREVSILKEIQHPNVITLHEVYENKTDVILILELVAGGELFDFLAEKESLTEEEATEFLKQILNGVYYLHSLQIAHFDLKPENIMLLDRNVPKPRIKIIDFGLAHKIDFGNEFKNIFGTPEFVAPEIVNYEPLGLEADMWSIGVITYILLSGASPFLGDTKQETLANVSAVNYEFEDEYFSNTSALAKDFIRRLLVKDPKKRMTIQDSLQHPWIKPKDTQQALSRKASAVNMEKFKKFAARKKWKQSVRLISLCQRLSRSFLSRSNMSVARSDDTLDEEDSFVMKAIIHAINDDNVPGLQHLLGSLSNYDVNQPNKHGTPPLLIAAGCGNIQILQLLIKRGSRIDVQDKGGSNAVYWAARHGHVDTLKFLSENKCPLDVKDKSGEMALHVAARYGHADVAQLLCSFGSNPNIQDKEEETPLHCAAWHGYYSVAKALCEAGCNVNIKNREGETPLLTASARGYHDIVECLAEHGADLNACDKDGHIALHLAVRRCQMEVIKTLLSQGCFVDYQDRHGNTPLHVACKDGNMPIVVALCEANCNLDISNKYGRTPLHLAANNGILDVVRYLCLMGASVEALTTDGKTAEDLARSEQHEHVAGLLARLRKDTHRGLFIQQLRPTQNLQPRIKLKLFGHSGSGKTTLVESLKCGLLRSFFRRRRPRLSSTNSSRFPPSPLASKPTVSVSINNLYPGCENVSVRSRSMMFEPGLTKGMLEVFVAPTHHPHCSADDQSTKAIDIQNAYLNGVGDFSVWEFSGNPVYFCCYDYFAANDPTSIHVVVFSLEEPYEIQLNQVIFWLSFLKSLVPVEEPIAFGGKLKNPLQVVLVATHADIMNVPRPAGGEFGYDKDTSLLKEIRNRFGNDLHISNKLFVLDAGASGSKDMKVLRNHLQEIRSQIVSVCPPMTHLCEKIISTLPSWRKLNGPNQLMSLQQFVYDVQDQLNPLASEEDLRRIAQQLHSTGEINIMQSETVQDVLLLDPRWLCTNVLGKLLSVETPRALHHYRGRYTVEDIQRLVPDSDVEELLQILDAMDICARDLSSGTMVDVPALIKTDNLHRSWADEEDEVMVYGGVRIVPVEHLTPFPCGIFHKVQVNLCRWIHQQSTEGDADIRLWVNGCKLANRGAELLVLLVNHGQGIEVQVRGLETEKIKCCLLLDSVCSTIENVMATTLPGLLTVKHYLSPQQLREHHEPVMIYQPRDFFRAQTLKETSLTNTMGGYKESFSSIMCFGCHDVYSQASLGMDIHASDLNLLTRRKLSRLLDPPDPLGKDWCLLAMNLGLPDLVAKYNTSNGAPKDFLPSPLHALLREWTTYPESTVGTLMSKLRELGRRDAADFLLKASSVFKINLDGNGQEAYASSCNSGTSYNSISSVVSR
Protocol: as §1, §2, §3, §4, §5, §6

[21] = target: Pim2 kinase (h) (Homo sapiens (Human), UniProt Q9P1W9); assay: Kinase selectivity panel: Pim2 kinase (h); format: biochemical; details: 10 μM in duplicate, read-out: % inhibition of control values
Pim2 kinase (h), sequence (Q9P1W9 whole entry): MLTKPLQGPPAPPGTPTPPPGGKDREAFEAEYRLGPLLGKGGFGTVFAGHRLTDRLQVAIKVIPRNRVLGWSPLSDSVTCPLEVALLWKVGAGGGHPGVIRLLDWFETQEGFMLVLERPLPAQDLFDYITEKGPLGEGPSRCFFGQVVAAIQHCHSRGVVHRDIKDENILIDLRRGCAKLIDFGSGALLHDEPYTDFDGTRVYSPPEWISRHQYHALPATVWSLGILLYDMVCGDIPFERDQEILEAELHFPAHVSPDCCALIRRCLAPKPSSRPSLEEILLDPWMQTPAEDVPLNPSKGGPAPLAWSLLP
Protocol: as §1, §2, §3, §4, §5, §6

[22] = target: MNK2 (h) (Homo sapiens (Human), UniProt Q9HBH9); assay: Kinase selectivity panel: MNK2 (h); format: biochemical; details: 10 μM in duplicate, read-out: % inhibition of control values
Protocol: as §1, §2, §3, §4, §5, §6

[23] = target: PhKgamma 2 (h) (Homo sapiens (Human), UniProt P15735); assay: Kinase selectivity panel: PhKgamma 2 (h); format: biochemical; details: 10 μM in duplicate, read-out: % inhibition of control values
PhKgamma 2 (h), sequence (P15735 whole entry): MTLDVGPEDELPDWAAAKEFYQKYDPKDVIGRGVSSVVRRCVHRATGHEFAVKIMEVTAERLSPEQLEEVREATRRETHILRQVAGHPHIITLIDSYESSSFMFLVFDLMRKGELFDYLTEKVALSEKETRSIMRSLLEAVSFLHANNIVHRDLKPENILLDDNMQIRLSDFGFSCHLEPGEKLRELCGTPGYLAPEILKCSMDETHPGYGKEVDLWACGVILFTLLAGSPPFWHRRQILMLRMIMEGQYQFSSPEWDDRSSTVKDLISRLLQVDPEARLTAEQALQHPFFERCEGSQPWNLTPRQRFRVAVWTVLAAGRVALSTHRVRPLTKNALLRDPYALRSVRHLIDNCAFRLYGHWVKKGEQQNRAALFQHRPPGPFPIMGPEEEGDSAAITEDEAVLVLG
Protocol: as §1, §2, §3, §4, §5, §6

[24] = target: PDK1 (h) (Homo sapiens (Human), UniProt O15530); assay: Kinase selectivity panel: PDK1 (h); format: biochemical; details: 10 μM in duplicate, read-out: % inhibition of control values
PDK1 (h), sequence (O15530 whole entry): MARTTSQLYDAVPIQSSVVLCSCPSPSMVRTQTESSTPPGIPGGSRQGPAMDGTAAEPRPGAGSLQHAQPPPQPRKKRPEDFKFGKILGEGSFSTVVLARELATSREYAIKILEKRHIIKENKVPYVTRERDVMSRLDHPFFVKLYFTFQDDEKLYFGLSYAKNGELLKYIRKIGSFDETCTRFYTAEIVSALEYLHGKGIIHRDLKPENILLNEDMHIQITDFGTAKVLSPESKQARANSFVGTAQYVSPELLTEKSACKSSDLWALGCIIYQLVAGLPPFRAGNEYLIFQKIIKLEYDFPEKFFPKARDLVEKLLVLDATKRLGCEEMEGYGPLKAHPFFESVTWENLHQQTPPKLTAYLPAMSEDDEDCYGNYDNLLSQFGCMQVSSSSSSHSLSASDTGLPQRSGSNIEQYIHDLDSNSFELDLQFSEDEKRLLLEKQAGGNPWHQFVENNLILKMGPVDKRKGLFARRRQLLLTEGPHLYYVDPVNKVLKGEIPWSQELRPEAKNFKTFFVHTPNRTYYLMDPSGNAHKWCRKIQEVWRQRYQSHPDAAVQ
Protocol: as §1, §2, §3, §4, §5, §6

[25] = target: PKCbeta 1 (h) (Homo sapiens (Human), UniProt P05771); assay: Kinase selectivity panel: PKCbeta 1 (h); format: biochemical; details: 10 μM in duplicate, read-out: % inhibition of control values
Protocol: as §1, §2, §3, §4, §5, §6

[26] = target: PKCgamma (h) (Homo sapiens (Human), UniProt P05129); assay: Kinase selectivity panel: PKCgamma (h); format: biochemical; details: 10 μM in duplicate, read-out: % inhibition of control values
Protocol: as §1, §2, §3, §4, §5, §6

[27] = target: PAK1 (h) (Homo sapiens (Human), UniProt Q13153); assay: Kinase selectivity panel: PAK1 (h); format: biochemical; details: 10 μM in duplicate, read-out: % inhibition of control values
Protocol: as §1, §2, §3, §4, §5, §6

[28] = target: HGK (h) (MAP4K4) (Homo sapiens (Human), UniProt O95819); assay: Kinase selectivity panel: HGK (h) (MAP4K4); format: biochemical; details: 10 μM in duplicate, read-out: % inhibition of control values
HGK (h) (MAP4K4), sequence (O95819 whole entry): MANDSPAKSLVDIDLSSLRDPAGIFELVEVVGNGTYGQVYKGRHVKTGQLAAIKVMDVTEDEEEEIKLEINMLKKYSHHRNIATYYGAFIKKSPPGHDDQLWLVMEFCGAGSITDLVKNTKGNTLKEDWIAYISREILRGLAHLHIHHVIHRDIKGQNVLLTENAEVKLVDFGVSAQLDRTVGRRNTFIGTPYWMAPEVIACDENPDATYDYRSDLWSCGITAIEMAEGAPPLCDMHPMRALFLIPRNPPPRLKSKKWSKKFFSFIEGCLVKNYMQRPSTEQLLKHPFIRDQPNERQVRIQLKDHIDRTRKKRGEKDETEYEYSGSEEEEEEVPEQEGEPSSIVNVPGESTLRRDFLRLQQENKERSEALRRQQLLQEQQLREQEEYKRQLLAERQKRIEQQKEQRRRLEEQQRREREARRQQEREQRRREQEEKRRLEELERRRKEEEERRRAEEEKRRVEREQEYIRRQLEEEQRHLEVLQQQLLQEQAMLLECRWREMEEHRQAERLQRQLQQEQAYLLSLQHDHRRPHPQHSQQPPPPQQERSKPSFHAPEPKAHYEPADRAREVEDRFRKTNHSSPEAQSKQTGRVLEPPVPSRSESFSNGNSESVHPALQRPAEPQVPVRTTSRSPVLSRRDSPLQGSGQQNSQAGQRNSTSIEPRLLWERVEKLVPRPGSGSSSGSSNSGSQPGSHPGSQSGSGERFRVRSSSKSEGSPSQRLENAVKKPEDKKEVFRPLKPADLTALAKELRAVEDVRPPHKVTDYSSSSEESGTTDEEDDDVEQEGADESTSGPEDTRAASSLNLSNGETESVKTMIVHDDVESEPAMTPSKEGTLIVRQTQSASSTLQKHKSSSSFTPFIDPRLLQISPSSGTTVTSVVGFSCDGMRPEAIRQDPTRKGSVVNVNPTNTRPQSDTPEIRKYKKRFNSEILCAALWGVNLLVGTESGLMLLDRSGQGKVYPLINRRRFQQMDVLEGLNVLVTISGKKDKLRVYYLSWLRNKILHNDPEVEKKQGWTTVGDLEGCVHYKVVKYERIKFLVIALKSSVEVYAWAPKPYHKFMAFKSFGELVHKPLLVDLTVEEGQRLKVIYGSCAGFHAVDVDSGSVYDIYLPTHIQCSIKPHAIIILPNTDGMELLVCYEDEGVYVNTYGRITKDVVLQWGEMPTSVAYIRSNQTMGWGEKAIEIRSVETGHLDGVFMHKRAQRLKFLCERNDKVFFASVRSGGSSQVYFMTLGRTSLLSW
Protocol: as §1, §2, §3, §4, §5, §6

[29] = target: DLK1 (h) (MAP3K12) (Homo sapiens (Human), UniProt Q12852); assay: Kinase selectivity panel: DLK1 (h) (MAP3K12); format: biochemical; details: 10 μM in duplicate, read-out: % inhibition of control values
Protocol: as §1, §2, §3, §4, §5, §6

[30] = target: IKKalpha (h) (Homo sapiens (Human), UniProt O15111); assay: Kinase selectivity panel: IKKalpha (h); format: biochemical; details: 10 μM in duplicate, read-out: % inhibition of control values
Protocol: as §1, §2, §3, §4, §5, §6

[31] = target: IKKepsilon (h) (IKBKE) (Homo sapiens (Human), UniProt Q14164); assay: Kinase selectivity panel: IKKepsilon (h) (IKBKE); format: biochemical; details: 10 μM in duplicate, read-out: % inhibition of control values
Protocol: as §1, §2, §3, §4, §5, §6

[32] = target: MYT1 kinase (h) (Homo sapiens (Human), UniProt Q99640); assay: Kinase selectivity panel: MYT1 kinase (h); format: biochemical; details: 10 μM in duplicate, read-out: % inhibition of control values
Protocol: as §1, §2, §3, §4, §5, §6

[33] = target: NEK7 (h) (Homo sapiens (Human), UniProt Q8TDX7); assay: Kinase selectivity panel: NEK7 (h); format: biochemical; details: 10 μM in duplicate, read-out: % inhibition of control values
Protocol: as §1, §2, §3, §4, §5, §6

[34] = target: AurB/Aur1 kinase (h) (Homo sapiens (Human), UniProt Q96GD4); assay: Kinase selectivity panel: AurB/Aur1 kinase (h); format: biochemical; details: 10 μM in duplicate, read-out: % inhibition of control values
Protocol: as §1, §2, §3, §4, §5, §6

Structure (SMILES): COc1ccc2[nH]nc(C(=O)NCC3CCN(CC(=O)O)CC3)c2c1 [Compound 1, [4-({[(5-methoxy-1H-indazol-3-yl)-carbonyl]amino}methyl)piperidin-1-yl]acetic acid]
- inhibition at 10 µM [1]: 0%
- inhibition at 10 µM [2]: 0%
- inhibition at 10 µM [3]: 0%
- inhibition at 10 µM [4]: 0%
- inhibition at 10 µM [5]: 0%
- inhibition at 10 µM [6]: 0%
- inhibition at 10 µM [7]: 0%
- inhibition at 10 µM [8]: 1%
- inhibition at 10 µM [9]: 94%
- inhibition at 10 µM [10]: 76%
- inhibition at 10 µM [11]: 22%
- inhibition at 10 µM [12]: 7%
- inhibition at 10 µM [13]: 18%
- inhibition at 10 µM [14]: 19%
- inhibition at 10 µM [15]: 0%
- inhibition at 10 µM [16]: 0%
- inhibition at 10 µM [17]: 5%
- % inhibition of control values [18]: 16%
- inhibition at 10 µM [19]: 0%
- inhibition at 10 µM [20]: 22%
- inhibition at 10 µM [21]: 3%
- inhibition at 10 µM [22]: 0%
- inhibition at 10 µM [23]: 30%
- inhibition at 10 µM [24]: 6%
- inhibition at 10 µM [25]: 0%
- inhibition at 10 µM [26]: 3%
- inhibition at 10 µM [27]: 1%
- inhibition at 10 µM [28]: 8%
- inhibition at 10 µM [29]: 0%
- inhibition at 10 µM [30]: 0%
- inhibition at 10 µM [31]: 0%
- inhibition at 10 µM [32]: 0%
- inhibition at 10 µM [33]: 0%
- inhibition at 10 µM [34]: 0%
